{"source": "patent US20080008999A1", "about": "“Process for detecting the existence of mesenchymal chrondrosarcoma” (priority 2004, published 2008)", "key": {"K562 tumor cells": {"test_system": "K562 tumor cells", "test": "KOR assay, optical density versus time of cell cultures (FIG. 13)", "format": "cell-based", "source_text": "Referring again to FIG. 6, and in the preferred embodiment depicted therein, a 96 well microtiter dish 310 is preferably used, and a light source 312 shines light through the samples disposed in such dish. The light source preferably provides light with a wavelength of from 200 about 800 nanometers. In one embodiment, the wavelength provided by the light source is from about 300 to about 700 nanometers. In yet another embodiment, the wavelength provided by the light source is from about 340 to about 660 nanometers.\nReferring again to FIG. 6, and in the preferred embodiment depicted therein, the transmittance values measured by sensor 314 may be converted into optical density values in accordance with the formula: Dw=-log10Tw, wherein Tw is the measured transmittance of the sample measured at the specified wavelength (w) of the light used, and Dw is the optical density of the sample at the specified wavelength of the light used.\nThus, applicant's process allows one to measure the true optical density of a sample rather than mere absorbance. Once such optical density has been measured, one can then plot optical density versus time (as illustrated in the Figures of U.S. Pat. No. 6,258,553) and obtain a true rather than a distorted indication of cell apoptosis. […]"}, "[1]": {"test_system": "epithelial carcinoma cells", "test": "exposure of cells to radiolabeled lineage specific hormones (FIG. 19)", "format": "cell-based", "source_text": "FIG. 19 is a representation of the results of exposing cells to various lineage specific hormones. […] Reference may be had to U.S. Pat. No. 6,565,827 (radioimmunotherapy of lymphoma using anti-CD20 antibodies), U.S. Pat. No. 6,287,537 (radioimmunotherapy of lymphoma using anti-CD20 antibodies), U.S. Pat. No. 6,015,542 (radioimmunotherapy of lymphoma using anti-CD20 antibodies), and U.S. Pat. No. 5,843,398 (radioimmunotherapy of lymphoma using anti-CD 20 antibodies). The entire disclosure of these United States patents are hereby incorporated by reference into this specification. […] In another embodiment (see graph 1300) epithelial cells, 1310, and ovarian cancer cells, 1320, are exposed to radiolabeled estrogen. Over 90 percent of the ovarian cancer cells are killed upon exposure to the radiolabeled estrogen but less than 30 percent of the epithelial carcinoma cells are killed upon exposure."}}, "note": "Counter-ions that a name gives are not always drawn.", "data": [{"molecule": "Cc1ccc(NC(=O)c2ccc(CN3CCN(C)CC3)cc2)cc1Nc1nccc(-c2cccnc2)n1", "note": "[imatinib mesylate]", "values": [{"measurement": "slope of optical density versus time relative to control slope", "setting": "K562 tumor cells; K562 tumor cells derived from a patient with chronic myelogenous leukemia", "result": "dose-dependent decrease in slope"}, {"measurement": "apoptosis peak in the KOR assay", "setting": "K562 tumor cells; optical density versus time", "result": "do not produce"}]}, {"molecule": "radiolabeled epithelial growth factor: radiolabeled ligand used to kill cells that possess receptors for the particular ligand (NSDSECPLSHDGYCLHDGVCMYIEALDKYACNCVVGYIGERCQYRDLKWWELR; Epidermal growth factor radiolabel; UniProt P01133 971-1023, looked up)", "values": [{"measurement": "epithelial carcinoma cells killed upon exposure", "setting": "[1]", "result": "more than 50%"}]}]}
